Experimental data as given in patent US8309558B2, “Compounds for the treatment of hepatitis C” (Bristol-Myers Squibb Company, priority 2008, dated 2012).
Where two headings read alike, the source gives them in different places.

Tests used:
[1] = target: T1, HCV NS5B RdRp genotype 1b (Hepatitis C virus genotype 1b, UniProt Q9WMX2); experiment: Standard HCV NS5B RdRp enzyme assay; assay type: biochemical
T1 construct: The protein was expressed with an 18 amino acid C-terminal truncation to enhance the solubility; made in house; host or cells: E. coli BL21(DE3), pET21a vector
T1 sequence (Q9WMX2 2420-2992): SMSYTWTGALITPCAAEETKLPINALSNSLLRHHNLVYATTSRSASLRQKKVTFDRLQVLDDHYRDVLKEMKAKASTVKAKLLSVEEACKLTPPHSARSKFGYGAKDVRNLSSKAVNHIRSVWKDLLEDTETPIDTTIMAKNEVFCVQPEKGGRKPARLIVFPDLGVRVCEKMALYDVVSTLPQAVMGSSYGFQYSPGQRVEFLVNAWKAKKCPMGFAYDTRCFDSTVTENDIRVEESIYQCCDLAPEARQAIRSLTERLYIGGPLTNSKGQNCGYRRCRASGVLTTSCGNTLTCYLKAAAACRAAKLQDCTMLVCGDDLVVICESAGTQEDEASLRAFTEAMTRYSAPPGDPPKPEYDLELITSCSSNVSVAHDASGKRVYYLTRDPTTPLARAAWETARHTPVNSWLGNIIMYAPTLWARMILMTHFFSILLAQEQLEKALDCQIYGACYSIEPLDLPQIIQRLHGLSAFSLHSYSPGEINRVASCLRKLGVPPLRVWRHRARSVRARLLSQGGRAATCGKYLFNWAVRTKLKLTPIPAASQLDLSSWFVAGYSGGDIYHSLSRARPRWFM
Procedure: HCV NS5B RdRp cloning, expression, and purification. The cDNA encoding the NS5B protein of HCV, genotype 1b, was cloned into the pET21a expression vector. The protein was expressed with an 18 amino acid C-terminal truncation to enhance the solubility. The E. coli competent cell line BL21(DE3) was used for expression of the protein. Cultures were grown at 37° C. for ˜4 hours until the cultures reached an optical density of 2.0 at 600 nm. The cultures were cooled to 20° C. and induced with 1 mM IPTG. Fresh ampicillin was added to a final concentration of 50 μg/ml and the cells were grown overnight at 20° C.
Cell pellets (3 L) were lysed for purification to yield 15-24 mgs of purified NS5B. The lysis buffer consisted of 20 mM Tris-HCl, pH 7.4, 500 mM NaCl, 0.5% triton X-100, 1 mM DTT, 1 mM EDTA, 20% glycerol, 0.5 mg/ml lysozyme, 10 mM MgCl2, 15 ug/ml deoxyribonuclease I, and Complete TM protease inhibitor tablets (Roche). After addition of the lysis buffer, frozen cell pellets were resuspended using a tissue homogenizer. To reduce the viscosity of the sample, aliquots of the lysate were sonicated on ice using a microtip attached to a Branson sonicator. The sonicated lysate was centrifuged at 100,000×g for 1 hr at 4° C. and filtered through a 0.2 μm filter unit (Corning).
The protein was purified using three sequential chromatography steps: Heparin sepharose CL-6B, polyU sepharose 4B, and Hitrap SP sepharose (Pharmacia). The chromatography buffers were identical to the lysis buffer but contained no lysozyme, deoxyribonuclease I, MgC12 or protease inhibitor and the NaCl concentration of the buffer was adjusted according to the requirements for charging the protein onto the column. Each column was eluted with a NaCl gradient which varied in length from 5-50 column volumes depending on the column type. After the final chromatography step, the resulting purity of the enzyme is >90% based on SDS-PAGE analysis. The enzyme was aliquoted and stored at −80° C.
Standard HCV NS5B RdRp enzyme assay. HCV RdRp genotype 1b assays were run in a final volume of 60 μl in 96 well plates (Costar 3912). The assay buffer composed of 20 mM Hepes, pH 7.5, 2.5 mM KCl, 2.5 mM MgCl2, 1 mM DTT, 1.6 U RNAse inhibitor (Promega N2515), 0.1 mg/ml BSA (Promega R3961), and 2% glycerol. All compounds were serially diluted (3-fold) in DMSO and diluted further in water such that the final concentration of DMSO in the assay was 2%. HCV RdRp genotype 1b enzyme was used at a final concentration of 28 nM. A polyA template was used at 6 nM, and a biotinylated oligo-dT12 primer was used at 180 nM final concentration. Template was obtained commercially (Amersham 27-4110). Biotinylated primer was prepared by Sigma Genosys. 3H-UTP was used at 0.6 μCi (0.29 μM total UTP). Reactions were initiated by the addition of enzyme, incubated at 30° C. for 60 min, and stopped by adding 25 μl of 50 mM EDTA containing SPA beads (4 μg/μl, Amersham RPNQ 0007). Plates were read on a Packard Top Count NXT after >1 hr incubation at room temperature.
IC50 values for compounds were determined using seven different [I]. IC50 values were calculated from the inhibition using the formula y=A+((B−A)/(1+((C/x)^D))).

HCV replicon cells = experiment: HCV replicon FRET / luciferase assay (96-well plates); assay type: cell-based; conditions: Hepatitis C virus
Excerpt: FRET Assay Preparation. To perform the HCV FRET screening assay, 96-well cell culture plates were used. The FRET peptide (Anaspec, Inc.) (Taliani et al., Anal. Biochem. 1996, 240, 60-67) contains a fluorescence donor, EDANS, near one end of the peptide and an acceptor, DABCYL, near the other end. The fluorescence of the peptide is quenched by […] resonance energy transfer (RET) between the donor and the acceptor, but as the NS3 protease cleaves the peptide the products are released from RET quenching and the fluorescence of the donor becomes apparent. The assay reagent was made as follows: 5× cell Luciferase cell culture lysis reagent from Promega (#E153A) diluted to 1× with dH2O, NaCl added to 150 mM final, the FRET peptide diluted to 20 μM final from a 2 mM stock.
To prepare plates, HCV replicon cells, with or without a Renilla luciferase reporter gene, were trypsinized and placed into each well of a 96-well plate with titrated test compounds added in columns 3 through 12; columns 1 and 2 contained a control compound (HCV protease inhibitor), and the bottom row contained cells without compound. The plates were then placed in a CO2 incubator at 37° C.
Assays. Subsequent to addition of the test compounds described above (FRET Assay Preparation), at various times the plate was removed and Alamar blue solution (Trek Diagnostics, #00-100) was added per well as a measure of cellular toxicity. After reading in a Cytoflour 4000 instrument (PE Biosystems), plates were rinsed with PBS and then used for FRET assay by the addition of 30 ul of the FRET peptide assay reagent described above (FRET Assay Preparation) per well. The plate was then placed into the Cytoflour 4000 instrument which had been set to 340 excite/490 emission, automatic mode for 20 cycles and the plate read in a kinetic mode. Typically, the signal to noise using an endpoint analysis after the reads was at least three-fold. Alternatively, after Alamar blue reading, plates were rinsed with PBS, 50 ul of DMEM (high glucose) without phenol red was added and plates were then used for luciferase assay using the Promega Dual-Glo Luciferase Assay System.
Compound analysis was determined by quantification of the relative HCV replicon inhibition and the relative cytotoxicity values. To calculate cytoxicity values, the average Alamar Blue fluorescence signals from the control wells were set as 100% non-toxic. The individual signals in each of the compound test wells were then divided by the average control signal and multiplied by 100% to determine […]. To calculate the HCV replicon inhibition values, an average background value was obtained from the two wells containing the highest amount of HCV protease inhibitor at the end of the assay period. These numbers were similar to those obtained from naïve Huh-7 cells.
The background numbers were then subtracted from the average signal obtained from the control wells and this number was used as 100% activity. The individual signals in each of the compound test wells were then divided by the averaged control values after background subtraction and multiplied by 100% to determine percent activity. EC50 values for a protease inhibitor titration were calculated as the concentration which caused a 50% reduction in FRET or luciferase activity. The two numbers generated for the compound plate, percent cytoxicity and percent activity were used to determine compounds of interest for further analysis.

[2] = Table 1a, HCV NS5B RdRp genotype 1b, read-out: IC50
[3] = Table 1a, HCV replicon, read-out: EC50
[4] = Table 1b, HCV NS5B RdRp genotype 1b, read-out: IC50

Row | SMILES | IC50 [1, 2] [nM] | EC50 (HCV replicon cells; [3]) [nM] | IC50 [1, 4] [nM] | other results
1 | CNC(=O)c1c(-c2ccc(F)cc2)oc2ccc(-c3cccc(C(=O)NCC(C)C)c3)cc12 | < 250 | < 250 | – | –
2 | CCCNC(=O)c1cccc(-c2ccc3oc(-c4ccc(F)cc4)c(C(=O)NC)c3c2)c1 | < 250 | < 250 | – | –
3 | CNC(=O)c1c(-c2ccc(F)cc2)oc2ccc(-c3cccc(C(=O)NC(C)(C)C(=O)OC)c3)cc12 | < 250 | < 250 | – | –
4 | CNC(=O)c1c(-c2ccc(F)cc2)oc2ccc(-c3cccc(C(=O)N[C@H]4C[C@@H]4c4ccccc4)c3)cc12 | > 400 | < 250 | – | –
5 | CNC(=O)c1c(-c2ccc(F)cc2)oc2ccc(-c3cccc(C(=O)N[C@@H](C)c4cccc(OC)c4)c3)cc12 | < 250 | < 250 | – | –
6 | CNC(=O)c1c(-c2ccc(F)cc2)oc2ccc(-c3cc(C(=O)NCC(C)C)ccc3O)cc12 | < 250 | < 250 | – | –
7 | C#CC(C)(C)NC(=O)c1cccc(-c2ccc3oc(-c4ccc(F)cc4)c(C(=O)NC)c3c2)c1 | < 250 | < 250 | – | –
8 | CNC(=O)c1c(-c2ccc(F)cc2)oc2ccc(-c3cccc(C(=O)NC(C)(C)CO)c3)cc12 | < 250 | < 250 | – | –
9 | CNC(=O)c1c(-c2ccc(F)cc2)oc2ccc(-c3cccc(C(=O)NC(C)(C)C(F)(F)F)c3)cc12 | < 250 | < 250 | – | –
10 | CNC(=O)c1c(-c2ccc(F)cc2)oc2ccc(-c3cccc(C(=O)NC(C)(C)CC(C)(C)C)c3)cc12 | 250 to 1000 | < 250 | – | –
11 | CCC(C)(C)NC(=O)c1cccc(-c2ccc3oc(-c4ccc(F)cc4)c(C(=O)NC)c3c2)c1 | < 250 | < 250 | – | –
12 | CNC(=O)c1c(-c2ccc(F)cc2)oc2ccc(-c3cccc(C(=O)NC4(c5ccc(F)cc5)CC4)c3)cc12 | < 250 | < 250 | – | –
13 | CNC(=O)c1c(-c2ccc(F)cc2)oc2ccc(-c3cccc(C(=O)NC4(c5ccccn5)CC4)c3)cc12 | < 250 | < 250 | – | –
14 | CNC(=O)c1c(-c2ccc(F)cc2)oc2ccc(-c3cccc(C(=O)NC(C)(C)Cc4ccc(F)cc4)c3)cc12 | 250 to 1000 | < 250 | – | –
15 | CNC(=O)c1c(-c2ccc(F)cc2)oc2ccc(-c3cccc(C(=O)NC(C)(C)c4ccc(OC)cc4)c3)cc12 | < 250 | < 250 | – | –
16 | CNC(=O)c1c(-c2ccc(F)cc2)oc2ccc(-c3ccc(-c4ccccc4)c(C(=O)NC(C)(C)c4ccccc4)c3)cc12 | < 250 | < 250 | – | –
17 | CNC(=O)c1c(-c2ccc(F)cc2)oc2cc([N+](=O)[O-])c(-c3cccc(C(=O)NC(C)(C)c4ccccc4)c3)cc12 | < 250 | < 250 | – | –
18 | CNC(=O)c1c(-c2ccc(F)cc2)oc2ccc(-c3cccc(C(=O)NC(C)(C)c4ccccc4)c3)c([N+](=O)[O-])c12 | < 250 | < 250 | – | –
19 | CNC(=O)c1c(-c2ccc(F)cc2)oc2cc([N+](=O)[O-])c(-c3cccc(C(=O)NC4(c5ccccc5)CC4)c3)cc12 | < 250 | < 250 | – | –

Row | SMILES | IC50 [1, 2] [nM] | EC50 (HCV replicon cells; [3]) [nM] | IC50 [1, 4] [nM] | other results
20 | CNC(=O)c1c(-c2ccc(F)cc2)oc2ccc(-c3cccc(C(=O)NC(C)(C)c4ccccc4)c3)c(N)c12 | < 250 | < 250 | – | –
21 | CNC(=O)c1c(-c2ccc(F)cc2)oc2cc(NS(C)(=O)=O)c(-c3cccc(C(=O)NC(C)(C)c4ccccc4)c3)cc12 | < 250 | < 250 | – | –
22 | CNC(=O)c1c(-c2ccc(F)cc2)oc2ccc(-c3cccc(C(=O)N4C5CCC4CN(C)C5)c3)cc12 | – | – | – | IC50 [1]: 1000 to 10000 nM; EC50 (HCV replicon cells): 1000 to 10000 nM
23 | CNC(=O)c1c(-c2ccc(F)cc2)oc2ccc(-c3cccc(C(=O)NC4CN5CCC4CC5)c3)cc12 (stereo not drawn) | – | – | – | IC50 [1]: 1000 to 10000 nM; EC50 (HCV replicon cells): 1000 to 10000 nM
24 | CCOC(=O)c1[nH]c(-c2cccc(-c3ccc4oc(-c5ccc(F)cc5)c(C(=O)NC)c4c3)c2)nc1C | – | – | < 250 | –
25 | CNC(=O)c1c(-c2ccc(F)cc2)oc2cc(NS(C)(=O)=O)c(/C=C/C(=O)NC(C)(C)c3ccccc3)cc12 | – | – | 1000 to 10000 | –
26 | CNC(=O)c1c(-c2ccc(F)cc2)oc2cc(N(CCO)S(C)(=O)=O)c(/C=C/C(=O)NC(C)(C)c3ccccc3)cc12 | – | – | < 250 | –
27 | CNC(=O)c1c(-c2ccc(F)cc2)oc2ccc(-c3ccc(-c4ccnc(C)c4)c(C(=O)NCC(C)C)c3)cc12 | – | – | < 250 | –
28 | CNC(=O)c1c(-c2ccc(F)cc2)oc2ccc(-c3ccc(-c4cccc(N)c4)c(C(=O)NCC(C)C)c3)cc12 | – | – | < 250 | –
29 | CNC(=O)c1c(-c2ccc(F)cc2)oc2ccc(-c3ccc(-c4cncnc4)c(C(=O)NCC(C)C)c3)cc12 | – | – | < 250 | –
30 | CNC(=O)c1c(-c2ccc(F)cc2)oc2ccc(-c3ccc(-c4c[nH]c(=O)[nH]c4=O)c(C(=O)NCC(C)C)c3)cc12 | – | – | < 250 | –
31 | CNC(=O)c1c(-c2ccc(F)cc2)oc2ccc(-c3ccc(-c4cncc(OC)c4)c(C(=O)NCC(C)C)c3)cc12 | – | – | 250 to 1000 | –
32 | CNC(=O)c1c(-c2ccc(F)cc2)oc2ccc(-c3ccc(-c4cnc(N)nc4)c(C(=O)NCC(C)C)c3)cc12 | – | – | < 250 | –
33 | CNC(=O)c1c(-c2ccc(F)cc2)oc2ccc(-c3ccc(-c4cncc(C)c4)c(C(=O)NCC(C)C)c3)cc12 | – | – | 250 to 1000 | –
34 | CNC(=O)c1c(-c2ccc(F)cc2)oc2ccc(-c3ccc(-c4ccsc4)c(C(=O)NCC(C)C)c3)cc12 | – | – | < 250 | –
35 | CNC(=O)c1c(-c2ccc(F)cc2)oc2ccc(-c3cc(C(=O)NC4(C(=O)OC)CC4)c(O)cc3Cl)cc12 | – | – | 250 to 1000 | –
36 | CNC(=O)c1c(-c2ccc(F)cc2)oc2ccc(-c3cc(C(=O)NC4(C(=O)O)CC4)c(O)cc3Cl)cc12 | – | – | 250 to 1000 | –
37 | CNC(=O)c1c(-c2ccc(F)cc2)oc2ccc(-c3cc(C(=O)NC4(c5cccc(C)n5)CC4)c(OC)cc3C)cc12 | – | – | – | IC50 ([1]; Table 1d (class symbols), HCV NS5B RdRp genotype 1b, read-out: IC50): 1 to 250 nM
